Assay results published in patent US9040530B2, “1,2,4-triazine-6-carboxamide kinase inhibitors” (Portola Pharmaceuticals, Inc., priority 2012, dated 2015).

Molecular target: T1, full length active recombinant SYK enzyme (Homo sapiens, UniProt P43405)
T1 construct: full length active recombinant SYK enzyme (Millipore, Calif.); purchased Millipore
Assay: Inhibition of Syk tyrosine phosphorylation activity (LANCE TR-FRET kinase assay)
Assay type: biochemical
Settings: 1 nM active SYK enzyme, 550 nM SYK-substrate, 100 μM ATP, 1 hour at room temperature

Row | Compound | IC50 [nM]
1 | Cn1ncc2c(Nc3nc(N[C@@H]4CCOC[C@@H]4N)nnc3C(N)=O)cccc21 [Example 139, 3-(((3R,4R)-3-aminotetrahydro-2H-pyran-4-yl)amino)-5-((1-methyl-1H-indazol-4-yl)amino)-1,2,4-triazine-6-carboxamide] | 10 to 100
2 | NC(=O)c1nnc(N[C@@H]2CCCC(F)(F)[C@@H]2N)nc1Nc1ccc2c(ccc[n+]2[O-])c1 [Example 50, 6-((3-(((1R,2R)-2-amino-3,3-difluorocyclohexyl)amino)-6-carbamoyl-1,2,4-triazin-5-yl)amino)quinoline 1-oxide] | 100 to 1000
3 | NC(=O)c1nnc(N[C@@H]2CCCC[C@@H]2N)nc1Nc1cnc2c(F)cccc2c1 [Example 160, 3-(((1R,2S)-2-aminocyclohexyl)amino)-5-((8-fluoroquinolin-3-yl)amino)-1,2,4-triazine-6-carboxamide] | 1 to 10
4 | CC[C@@H](Nc1nnc(C(N)=O)c(Nc2cccc(F)c2)n1)C(N)=O [Example 195, (R)-3-((1-amino-1-oxobutan-2-yl)amino)-5-((3-fluorophenyl)amino)-1,2,4-triazine-6-carboxamide] | 10 to 100
5 | NC(=O)c1nnc(N[C@@H]2CCCC[C@@H]2N)nc1Nc1cccc(C(F)(F)F)c1 [Example 170, 3-(((1R,2S)-2-aminocyclohexyl)amino)-5-((3-(trifluoromethyl)phenyl)amino)-1,2,4-triazine-6-carboxamide] | 1 to 10
6 | NC(=O)c1nnc(N[C@@H]2CCCC[C@@H]2N)nc1Nc1ccc2ncsc2c1 [Example 42, 3-(((1R,2S)-2-aminocyclohexyl)amino)-5-(benzo[d]thiazol-6-ylamino)-1,2,4-triazine-6-carboxamide] | 1 to 10
7 | CC[C@@H](Nc1nnc(C(N)=O)c(Nc2ccc(N3CCOCC3)c(F)c2)n1)C(N)=O [Example 31, (R)-3-((1-amino-1-oxobutan-2-yl)amino)-5-((3-fluoro-4-morpholinophenyl)amino)-1,2,4-triazine-6-carboxamide] | 10 to 100

The next lines start with the values.

Row | IC50 [nM] | Compound
8 | 10 to 100 | NC(=O)c1nnc(N[C@@H]2CCCC[C@@H]2N)nc1Nc1ccc(-n2cncn2)cc1 [Example 106, 5-((4-(1H-1,2,4-triazol-1-yl)phenyl)amino)-3-(((1R,2S)-2-aminocyclohexyl)amino)-1,2,4-triazine-6-carboxamide]
9 | 10 to 100 | NC(=O)c1nnc(N[C@H]2CC[C@@H](N)CC2)nc1Nc1ccc2ncccc2c1 [Example 56, 3-(((1S,4S)-4-aminocyclohexyl)amino)-5-(quinolin-6-ylamino)-1,2,4-triazine-6-carboxamide]
10 | 1 to 10 | NC(=O)c1nnc(N[C@@H]2CCCC[C@@H]2N)nc1Nc1ccc2ncccc2c1 [Example 47, 3-(((1R,2S)-2-aminocyclohexyl)amino)-5-(quinolin-6-ylamino)-1,2,4-triazine-6-carboxamide]
11 | 1 to 10 | Cn1cc(C#N)c2ccc(Nc3nc(N[C@@H]4CCOC[C@@H]4N)nnc3C(N)=O)cc21 [Example 172, 3-(((3R,4R)-3-aminotetrahydro-2H-pyran-4-yl)amino)-5-((3-cyano-1-methyl-1H-indol-6-yl)amino)-1,2,4-triazine-6-carboxamide]
12 | 100 to 1000 | CC[C@@H](Nc1nnc(C(N)=O)c(Nc2ccc(Cl)c(C(F)(F)F)c2)n1)C(N)=O [Example 240, (R)-3-((1-amino-1-oxobutan-2-yl)amino)-5-((4-chloro-3-(trifluoromethyl)phenyl)amino)-1,2,4-triazine-6-carboxamide]
13 | 10 to 100 | NC(=O)c1nnc(N[C@@H]2CCOC[C@@H]2N)nc1Nc1ccc(Cl)c(Cl)c1 [Example 244, 3-(((3R,4R)-3-aminotetrahydro-2H-pyran-4-yl)amino)-5-((3,4-dichlorophenyl)amino)-1,2,4-triazine-6-carboxamide]
14 | 100 to 1000 | Cc1ccc(Nc2nc(N[C@@H]3CCCC(F)(F)[C@@H]3N)nnc2C(N)=O)cc1C#N [Example 233, 3-(((1R,2R)-2-amino-3,3-difluorocyclohexyl)amino)-5-((3-cyano-4-methylphenyl)amino)-1,2,4-triazine-6-carboxamide]
